IC50 data for 17 compounds are collected here from patent US7772221B2, “Diaminopropane derived macrocycles as inhibitors of β amyloid production” (Bristol-Meyers Squibb Company, priority 2007, dated 2010).

Each structure is given as a SMILES string. A value given as a limit tells only on which side of the number the result lay.

T1 sequence (P56817 46-501): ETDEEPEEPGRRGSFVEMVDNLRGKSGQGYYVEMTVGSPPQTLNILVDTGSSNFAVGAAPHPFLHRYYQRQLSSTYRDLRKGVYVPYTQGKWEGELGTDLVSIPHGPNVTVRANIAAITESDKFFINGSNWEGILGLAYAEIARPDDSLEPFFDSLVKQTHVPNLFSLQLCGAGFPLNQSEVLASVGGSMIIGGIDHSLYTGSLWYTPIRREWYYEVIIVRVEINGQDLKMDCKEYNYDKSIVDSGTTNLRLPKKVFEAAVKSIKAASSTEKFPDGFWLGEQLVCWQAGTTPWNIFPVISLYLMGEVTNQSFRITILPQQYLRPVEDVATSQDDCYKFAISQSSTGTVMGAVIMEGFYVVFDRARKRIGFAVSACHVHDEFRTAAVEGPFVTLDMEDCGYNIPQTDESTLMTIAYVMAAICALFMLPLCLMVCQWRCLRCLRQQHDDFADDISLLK

The experiment has as its target T1, BACE1 enzyme (Homo sapiens, UniProt P56817).
T1 construct: endogenous in cells; washed 48,000 x g membrane pellet / cell homogenate
Description: Radioligand displacement assay with a radiolabeled BACE inhibitor. The class given is binding. To be noted: HEK293-9B.A1 cell homogenate overexpressing BACE1, 1 nM radioligand, pH 5.0, 1.5 hr at 25° C.; read-out: Activity Rating (activity based on IC50 values). The text has this:
There are a number of methods by which inhibitors of the BACE enzyme can be identified experimentally. The enzyme can be obtained from membrane samples from natural tissues or cultured cells or can be expressed recombinantly in a host cell by well known methods of molecular biology. The whole enzyme or a portion thereof can be expressed, for example, in bacterial, insect or mammalian cells to obtain a catalytically active enzyme species. The enzymatic activity and/or ligand binding capability of the enzyme can be assessed within these membrane samples, or the enzyme can be purified to varying extents. As an illustrative example, the nucleic acid sequence encoding the pro and catalytic domains of human BACE can be appended on the 5′ end with an untranslated and signal sequence from the gene for acetylcholinesterase, and on the 3′ end with a sequence encoding a poly-histidine tag. This cDNA can then be expressed in Drosophila melanogaster S2 cells in which the signal and pro sequences of the transcribed/translated protein are removed by cellular proteases and the catalytic domain, appended by a C-terminal poly-histidine tag, is secreted out into the cellular medium. The enzyme can then be purified from the culture medium by nickel affinity chromatography by methods well known to those trained in the art [Mallender, W. et al., “Characterization of recombinant, soluble beta-secretase from an insect cell expression system.” Mol. Pharmacol. 2001, 59: 619-626]. Similar strategies for expressing and purifying various forms of BACE in bacterial, mammalian and other cell types would be known to one skilled in the art. A preferred method for determining the potency of a test compound in binding to the BACE enzyme is by monitoring the displacement of a suitable radioligand.
Radioligand displacement assays with a radiolabeled BACE inhibitor (WO 2004 013098, compound 3, where the methoxy group is substituted for C(^3H)3) were carried out using standard methods (Keen, M. (1999) in Receptor Binding Techniques (Walker, J. M. ed) p. 106 Humana Press, Totowa, N.J.). The HEK293-9B.A1 cell line, which overexpresses the BACE1 enzyme, was derived from HEK293 cells (Simmons, N. L. (1990) A cultured human renal epithelioid cell line responsive to vasoactive intestinal peptide. Exp. Physiol. 75:309-19.) by RAGE™ (Harrington, J. J. et al. (2001) Creation of genome-wide protein expression libraries using random activation of gene expression. Nat. Biotechnol. 19:440-5.; U.S. Pat. Nos. 6,410,266 and 6,361,972). T225 flask cultures of HEK293-9B.A1 were grown to 80% confluency in DMEM supplemented with 2 mM L-glutamine, 10 μg/mL penicillin, 10 μg/mL streptomycin, 3 μg/mL puromycin, 100 nM methotrexate, and 10% fetal bovine serum (Invitrogen, Carlsbad, Calif.), harvested, and resuspended at 2×10^8 cells per 10 mL of lysis buffer consisting of 50 mM HEPES pH 7.0 containing a protease inhibitor cocktail of AEBSF 104 μM, aprotinin 80 nM, leupeptin 2 μM, bestatin 4 μM, pepstatin A 1.5 μM, and E-64 1.4 μM (0.1% of protease inhibitor cocktail P8340, Sigma-Aldrich, St. Louis, Mo.) at 4° C. The resuspended cells were homogenized using a Polytron (Brinkman, Westbury, N.Y.) at setting 6 for 10 sec., then centrifuged at 48,000×g for 10 min. The resulting pellet was washed by repeating the resuspension, homogenization and centrifugation steps. The final pellet was resuspended in buffer at 4° C. to yield a total protein concentration of 5 mg/mL, then aliquots were frozen in liquid nitrogen for further storage at −70° C. Immediately before carrying out a binding assay, an aliquot of cell homogenate was thawed and diluted to a concentration of 100 μg/mL in assay buffer consisting of 50 mM HEPES pH 5.0 and 0.1% CHAPSO. […]
For orientation: IC50 means the midpoint of a concentration-inhibition curve. For the compound `CCCC[C@H](C)C(=O)N(C)[C@H]1CC=CCO[C@H]2CC[C@H](C2)NC[C@@H](O)[C@H](Cc2cc(F)cc(F)c2)NC1=O` (racemic) [Example 25, (S)-2-methyl-hexanoic acid [(1R,4R,5S,8S,14S)-5-(3,5-difluoro-benzyl)-4-hydroxy-7-oxo-13-oxa-2,6-diaza-bicyclo[12.2.1]heptadec-10-en-8-yl]-methyl-amide and (S)-2-methyl-hexanoic acid [(1S,4R,5S,8S,14R)-5-(3,5-difluoro-benzyl)-4-hydroxy-7-oxo-13-oxa-2,6-diaza-bicyclo[12.2.1]heptadec-10-en-8-yl]-methyl-amide], the half-inhibitory concentration (IC50) was 10 to 500 nM. Next, `CCCCCS(=O)(=O)N(C)[C@H]1CC=CCO[C@@H]2Cc3ccc(OC)cc3[C@H]2NC[C@@H](O)[C@H](Cc2ccccc2)NC1=O` (racemic) [Example 26, pentane-1-sulfonic acid ((1R,7S,10S,11R,14R)-10-benzyl-11-hydroxy-17-methoxy-8-oxo-2-oxa-9,13-diaza-tricyclo[12.7.0.0^15,20]henicosa-4,15(20),16,18-tetraen-7-yl)-methyl-amide and pentane-1-sulfonic acid ((1S,7S,10S,11R,14S)-10-benzyl-11-hydroxy-17-methoxy-8-oxo-2-oxa-9,13-diaza-tricyclo[12.7.0.0^15,20]henicosa-4,15(20),16,18-tetraen-7-yl)-methyl-amide]: above 500 nM; `COc1ccc2c(c1)[C@@H]1C[C@H]2NCCCC[C@H](N(C)S(=O)(=O)CCC(F)(F)F)C(=O)N[C@@H](Cc2ccccc2)[C@H](O)CN1` (single isomer, unassigned) [Example 52]: 10 to 500 nM. Next, `COc1ccc2c(c1)[C@@H]1C[C@H]2OCC=CC[C@H](N(C)C(=O)C(C)CC(F)(F)F)C(=O)N[C@@H](Cc2cc(F)cc(F)c2)[C@H](O)CN1` (single isomer, unassigned; diastereomer a) [Example 21]: below 10 nM. On to `COc1ccc2c(c1)[C@@H]1C[C@H]2COCC=CC[C@H](N(C)S(=O)(=O)CCC(F)(F)F)C(=O)N[C@@H](Cc2ccccc2)[C@H](O)CN1` (single isomer, unassigned; isomer a) [Example 35], for which the half-inhibitory concentration (IC50) is below 10 nM. Next, `CCCC[C@H]1CC=CCO[C@@H]2C[C@H](NC[C@@H](O)[C@H](Cc3cc(F)cc(F)c3)NC1=O)c1cc(OC)ccc12` [Example 8, (1S,4R,5S,8S,14R)-8-butyl-5-(3,5-difluoro-benzyl)-4-hydroxy-18-methoxy-13-oxa-2,6-diaza-tricyclo[12.6.1.0^15,20]henicosa-10,15(20),16,18-tetraen-7-one]: above 500 nM; `CCCC[C@H](C)C(=O)N(C)[C@H]1CC=CCOC[C@@H](c2ccccc2)NC[C@@H](O)[C@H](Cc2cc(F)cc(F)c2)NC1=O` [Example 18, (S)-2-methyl-hexanoic acid [(3R,6R,7S,10S)-7-(3,5-difluoro-benzyl)-6-hydroxy-9-oxo-3-phenyl-1-oxa-4,8-diaza-cyclotetradec-12-en-10-yl]-methyl-amide]: above 500 nM. To `CCCC(CCC)C(=O)N(C)[C@H]1CC=CCOCCC(c2cccc(OC)c2)NC[C@@H](O)[C@H](Cc2ccccc2)NC1=O` (stereo partly drawn) [Example 19, N-((7R,8S,11S)-8-benzyl-7-hydroxy-4-(3-methoxyphenyl)-10-oxo-1-oxa-5,9-diazacyclopentadec-13-en-11-yl)-N-methyl-2-propylpentanamide] belongs above 500 nM; to `CCOc1ccsc1C(=O)N(C)[C@H]1CC=CCO[C@@H]2C[C@H](NC[C@@H](O)[C@H](Cc3ccccc3)NC1=O)c1cc(OC)ccc12` [Example 20, 3-ethoxy-thiophene-2-carboxylic acid ((1S,4R,5S,8S,14R)-5-benzyl-4-hydroxy-18-methoxy-7-oxo-13-oxa-2,6-diaza-tricyclo[12.6.1.0^15,20]henicosa-10,15(20),16,18-tetraen-8-yl)-methyl-amide], 10 to 500 nM; to `CCCCCS(=O)(=O)N(C)[C@H]1CCCCO[C@H]2Cc3ccc(OC)cc3[C@H]2NC[C@@H](O)[C@H](Cc2ccccc2)NC1=O` [Example 29, pentane-1-sulfonic acid ((1S,7S,10S,11R,14R)-10-benzyl-11-hydroxy-17-methoxy-8-oxo-2-oxa-9,13-diaza-tricyclo[12.7.0.0^15,20]henicosa-15(20),16,18-trien-7-yl)-methyl-amide], 10 to 500 nM.

On to `CCCCCS(=O)(=O)N(C)[C@H]1CC=CCO[C@@H]2C[C@H](NC[C@@H](O)[C@H](Cc3cc(Cl)cc(Cl)c3)NC1=O)c1cc(OC)ccc12` [Example 43], for which the concentration for half-maximal inhibition (IC50) is below 10 nM. In the case of `CCCC[C@H](C)C(=O)N(C)[C@H]1CCCCO[C@@H]2C[C@H](NC[C@@H](O)[C@H](Cc3cc(Cl)cc(Cl)c3)NC1=O)c1cc(OC)ccc12` [Example 49, (S)-2-methyl-hexanoic acid ((1S,4R,5S,8S,14R)-5-(3,5-dichloro-benzyl)-4-hydroxy-18-methoxy-7-oxo-13-oxa-2,6-diaza-tricyclo[12.6.1.0^15,20]henicosa-15(20),16,18-trien-8-yl)-methyl-amide], the concentration for half-maximal inhibition (IC50) was below 10 nM. To `COc1ccc2c(c1)[C@@H]1CC2N(C)CCCCC[C@H](N(C)S(=O)(=O)CCC(F)(F)F)C(=O)N[C@@H](Cc2ccccc2)[C@H](O)CN1` [Example 56, 3,3,3-trifluoro-propane-1-sulfonic acid ((1S,4R,5S,8S)-5-benzyl-4-hydroxy-19-methoxy-14-methyl-7-oxo-2,6,14-triaza-tricyclo[13.6.1.0^16,21]docosa-16(21),17,19-trien-8-yl)-methyl-amide] belongs 10 to 500 nM; to `CN([C@H]1CCC=CCO[C@@H]2C[C@H](NC[C@@H](O)[C@H](Cc3ccccc3)NC1=O)c1cc(Br)ccc12)S(=O)(=O)CCC(F)(F)F` [Example 61, 3,3,3-trifluoro-propane-1-sulfonic acid ((1S,4R,5S,8S,15R)-5-benzyl-19-bromo-4-hydroxy-7-oxo-14-oxa-2,6-diaza-tricyclo[13.6.1.0^16,21]docosa-11,16(21),17,19-tetraen-8-yl)-methyl-amide], below 10 nM; to `CC(C)CCc1ccc2c(c1)[C@@H]1C[C@H]2OCC=CCCCC(=O)N[C@@H](Cc2cc(F)cc(F)c2)[C@H](O)CN1` [Example 69, (1S,4R,5S,15R)-5-(3,5-difluoro-benzyl)-4-hydroxy-19-(3-methyl-butyl)-14-oxa-2,6-diaza-tricyclo[13.6.1.0^16,21]docosa-11,16(21),17,19-tetraen-7-one], 10 to 500 nM. Take `COc1ccc2c(c1)[C@@H]1C[C@H]2OCC=CCC[C@H](N(C)S(=O)(=O)CCC(F)(F)F)C(=O)N[C@@H](CC(C)C)[C@H](O)CN1` [Example 70, 3,3,3-trifluoro-propane-1-sulfonic acid ((1S,4R,5S,8S,15R)-4-hydroxy-5-isobutyl-19-methoxy-7-oxo-14-oxa-2,6-diaza-tricyclo[13.6.1.0^16,21]docosa-11,16(21),17,19-tetraen-8-yl)-methyl-amide]: the concentration for half-maximal inhibition (IC50) is below 10 nM. Consider `CC(C)Oc1ccc2c(c1)[C@@H]1C[C@H]2OCC=CCCCC(=O)N[C@@H](Cc2cc(F)cc(F)c2)[C@H](O)CN1` [Example 78, (1S,4R,5S,15R)-5-(3,5-difluoro-benzyl)-4-hydroxy-19-isopropoxy-14-oxa-2,6-diaza-tricyclo[13.6.1.0^16,21]docosa-11,16(21),17,19-tetraen-7-one], for which the half-maximal inhibitory concentration (IC50) was below 10 nM.
